Read-outs that look alike come from different tables or passages of the source. One block for each compound: values may come before it.
What was measured:
[1] = test system: A. niger sulfhydryl oxidase; experiment: Polarographic O2 depletion assay of sulfhydryl oxidase with thiol compounds and substrates of other oxidases; format: biochemical, Aspergillus niger; conditions: for kcat (app)/Km (app) (head is drawing 1) / kcat (app) / Km: purified enzyme, polarographic assay; for kcat (app) / Km: double reciprocal plot; for Km: read-out: Km (app); for Activity toward substrates of other known oxidases: test compound 10 mM in 40 mM sodium acetate at pH 5.5
Procedure: Two assays have been employed to determine SHX activity. The first assay is based on the depletion of O2 from assay mixtures containing thiol compounds; oxygen depletion is measured polarographically by oxygen electrode techniques. One unit of SHX is defined as that amount of enzyme which would utilize or consume 1 umol of O2 per minute under the conditions of the assay.
Rates of O2 depletion by the purified enzyme were measured at selected concentrations of GSH, cysteine, dithiothreitol and 2-mercapto-ethanol. […] Kinetic constants were calculated from the double reciprocal plot by linear regression fitting of the data points.
The enzyme was tested for activity toward substrates of other known oxidases, including D-glucose, D-fructose, L-lysine, D-lysine, benzylamine, xanthine, putrescine, catechol, nicotinamide adenine dinucleotide (reduced) ("NADH") and nicotinamide adenine dinucleotide phosphate (reduced) ("NADPH").
In a typical assay, 2.9 mL of a mixture consisting of a thiol compound in an appropriate buffer was equilibrated with stirring to 25° C. After the vial was sealed with the electrode, a volume of 0.1 mL of enzyme solution was injected into the assay mixture. […] One unit of sulfhydryl oxidase was defined as that amount of enzyme which would deplete 1 umole of O2 per minute under the conditions of the assay. Unless otherwise indicated, the assay mixture contained 8 mM GSH in 40 mM acetate buffer, pH 5.5, at 25° C.

[2] = test system: A. niger sulfhydryl oxidase; experiment: Sulfhydryl oxidase activity in presence of chelating agents; format: biochemical, Aspergillus niger; conditions: 1 mM chelating agent in 0.05M phosphate buffer, pH 7.0, even after overnight incubation
Excerpt: Since flavin oxidases containing essential metal ions are known to exist, sulfhydryl oxidase was examined for changes in activity upon treatment with the chelating agents.

sulfhydryl apooxidase = experiment: Reactivation of sulfhydryl apooxidase by resolved flavins or standards; format: biochemical, Aspergillus niger; conditions: for Activity: apooxidase after 14 hours incubation at 0° C. with resolved flavins or standards
Excerpt: At […], FAD is weakly fluorescent owing to quenching by its adenine moiety. FMN and other nonadenylated flavins, on the other hand, fluoresce strongly under both conditions of pH (Bessey et al., 1949); Cerletti and Siliprandi, 1958). Thus the ratio of fluorescence at basic pH to that at acidic pH distinguishes adenylated from nonadenylated flavins. […] When the isolated flavins were recombined with sulfhydryl apooxidase, only the product of treatment by boiling was capable of restoring activity to the enzyme.
Determination of sulfhydryl oxidase activity was based upon depletion of O2 from assay mixtures containing thiol compounds, as measured with a Yellow Springs Instruments oxygen monitor (model 500) equipped with a polarographic Clark-type electrodes. In a typical assay, 2.9 mL of a mixture consisting of a thiol compound in an appropriate buffer was equilibrated with stirring to 25° C. After the vial was sealed with the electrode, a volume of 0.1 mL of enzyme solution was injected into the assay mixture. The rate of oxygen depletion was constant during the first 30 seconds of the assay; thus, the initial rate of O2 depletion was taken to be sulfhydryl oxidase activity under the prevailing conditions. One unit of sulfhydryl oxidase was defined as that amount of enzyme which would deplete 1 umole of O2 per minute under the conditions of the assay. Unless otherwise indicated, the assay mixture contained 8 mM GSH in 40 mM acetate buffer, pH 5.5, at 25° C.
In reactivation experiments, freshly prepared apoenzyme was combined with flavin solution and 0.1M sodium phosphate buffer, pH 7.0, in the volume proportions 1:1:2. This mixture was incubated for 14 to 16 hours at 0° C. After the incubation period, the enzyme was separated from excess free flavin by passage through a Pharmacia PD-10 column equilibrated and eluted with 40 mM acetate buffer, pH 5.5.
The flavin component was also extracted from the enzyme by two other methods. Dialyzed sulfhydryl oxidase was boiled for 5 minutes with protection from light and cooled quickly by immersion in ice water. […]

[3] = test system: A. niger sulfhydryl oxidase; experiment: NAD/NADP as electron acceptors, absorbance at 340 nm; format: biochemical, Aspergillus niger; conditions: in the presence of sulfhydryl oxidase and 4 mM GSH
[4] = target: A. niger sulfhydryl oxidase; experiment: Spectral titration with sodium sulfite (flavin-sulfite complex); format: binding, Aspergillus niger; conditions: read-out: Dissociation constant Kd of flavin-sulfite complex
Procedure: FIG. 3: Absorption spectra of purified sulfhydryl oxidase after reaction with sodium sulfite at pH 6, showing bleaching of the visible bond of SHX spectrum. Each spectrum was recorded 10 minutes after the addition of a small aliquot of sodium sulfite to a cuvette containing 1.8 mg/mL SHX in 50 mM sodium phosphate. Sulfite concentrations after each addition were 0 mM(1), 0.99 mM(2), 2.44 mM(3) and 152 mM(4).
Additional spectral analysis confirms that the SHX of the present invention is a flavoprotein. Most flavin oxidases, but not flavin dehydrogenases, react with sodium sulfite to form a bleached flavin-sulfite complex (Massey et al., 1969). The spectral change incurred by incubation of sulfhydryl oxidase with sodium sulfite at varying concentrations is show in FIG. 3. The dissociation constant Kd =[SHX][SO2 ]/[SHX-SO2 ]for the sulfhydryl oxidase flavin-sulfite complex was calculated from the first few spectra under the assumption that spectrum 4 in FIG. 3 represented full conversion of the enzyme to the sulfite complex, and that the initial excess of sulfite was so large that its concentration was essentially unchanged at equilibrium. The first assumption was justified by the fact that spectrum 4 (152.8 mM sulfite) was identical with the spectrum recorded when the sulfite concentration was just 42.8 mM (not shown).

[5] = target: T1, flavin sulfhydryl oxidase from rat epididymal fluid (Rattus norvegicus, UniProt Q6IUU3); conditions: concentrations as high as 0.1M; cited from earlier work
T1 construct: flavin sulfhydryl oxidase from rat epididymal fluid; host or cells: rat epididymal fluid as printed
T1 sequence (Q6IUU3 33-750): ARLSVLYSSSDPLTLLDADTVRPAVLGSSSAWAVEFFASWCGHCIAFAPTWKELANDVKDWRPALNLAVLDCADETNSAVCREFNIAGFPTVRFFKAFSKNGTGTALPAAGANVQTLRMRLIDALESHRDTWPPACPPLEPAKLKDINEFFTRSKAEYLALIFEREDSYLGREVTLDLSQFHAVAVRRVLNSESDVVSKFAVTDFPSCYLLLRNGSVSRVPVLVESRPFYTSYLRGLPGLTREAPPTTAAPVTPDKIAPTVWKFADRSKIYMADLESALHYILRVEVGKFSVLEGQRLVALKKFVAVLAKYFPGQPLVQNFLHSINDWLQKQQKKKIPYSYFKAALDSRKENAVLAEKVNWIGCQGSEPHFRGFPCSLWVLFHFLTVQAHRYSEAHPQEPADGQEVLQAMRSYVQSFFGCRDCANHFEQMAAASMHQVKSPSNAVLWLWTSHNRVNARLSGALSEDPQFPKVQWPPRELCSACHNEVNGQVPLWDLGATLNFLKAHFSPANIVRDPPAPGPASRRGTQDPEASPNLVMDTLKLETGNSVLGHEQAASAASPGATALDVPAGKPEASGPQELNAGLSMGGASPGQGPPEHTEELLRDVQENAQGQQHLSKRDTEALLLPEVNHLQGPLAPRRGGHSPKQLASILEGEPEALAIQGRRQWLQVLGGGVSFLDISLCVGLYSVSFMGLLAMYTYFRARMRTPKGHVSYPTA

kcat (app)/Km (app) (head is drawing 1) [1]: 110 min^-1 M^- 1
kcat (app) [1]: 7140 min⁻¹
Km [1]: 66 mM
Compound: O[C@H](CS)[C@H](O)CS (racemic) [Dithiothreitol]

kcat (app)/Km (app) (head is drawing 1) [1]: 26 min^-1 M^- 1
kcat (app) [1]: 8715 min⁻¹
Compound: OCCS [2-Mercaptoethanol]

Compound: Oc1cccc2cccnc12 [8-hydroxyquinoline]
Change in sulfhydryl oxidase activity [2]: No activity decreases

Compound: Cc1cc2nc3c(=O)[nH]c(=O)nc-3n(C[C@H](O)[C@H](O)[C@H](O)COP(=O)(O)OP(=O)(O)OC[C@H]3O[C@@H](n4cnc5c(N)ncnc54)[C@H](O)[C@@H]3O)c2cc1C [Authentic FAD, flavin adenine dinucleotide]
Activity (sulfhydryl apooxidase): 0.58 units/mL

Compound: Cc1cc2nc3c(=O)[nH]c(=O)nc-3n(C[C@H](O)[C@H](O)[C@H](O)COP(=O)(O)O)c2cc1C [Authentic FMN, flavin mononucleotide]
Activity (sulfhydryl apooxidase): 0.0 units/mL
Restoration of apooxidase activity toward GSH (sulfhydryl apooxidase; excess FMN, pH 3 to 9, various buffer salts): did not result in any detectable restoration of activity

kcat (app)/Km (app) (head is drawing 1) [1]: 230 min^-1 M^- 1
kcat (app) [1]: 9975 min⁻¹
Km [1]: 43 mM
Compound: N[C@@H](CS)C(=O)O [Cysteine]

Activity toward substrates of other known oxidases [1]: failed to stimulate
Compound: O=C(CO)[C@@H](O)[C@H](O)[C@H](O)CO [D-fructose]

Activity toward substrates of other known oxidases [1]: failed to stimulate
Compound: OC[C@H]1OC(O)[C@H](O)[C@@H](O)[C@@H]1O (stereo partly drawn) [D-glucose]

Compound: NCCCC[C@@H](N)C(=O)O [D-lysine]
Activity toward substrates of other known oxidases [1]: failed to stimulate

kcat (app)/Km (app) (head is drawing 1) [1]: 26,000 min^-1 M^- 1
kcat (app) [1]: 7875 min⁻¹
Km [1]: 0.3 mM
Compound: N[C@@H](CCC(=O)N[C@@H](CS)C(=O)NCC(=O)O)C(=O)O [Glutathione]

Compound: NCCCC[C@H](N)C(=O)O [L-lysine]
Activity toward substrates of other known oxidases [1]: failed to stimulate

Compound: NC(=O)C1=CN([C@@H]2O[C@H](COP(=O)(O)OP(=O)(O)OC[C@H]3O[C@@H](n4cnc5c(N)ncnc54)[C@H](O)[C@@H]3O)[C@@H](O)[C@H]2O)C=CC1 [NADH, nicotinamide adenine dinucleotide (reduced)]
Activity toward substrates of other known oxidases [1]: failed to stimulate

Compound: NC(=O)C1=CN([C@@H]2O[C@H](COP(=O)(O)OP(=O)(O)OC[C@H]3O[C@@H](n4cnc5c(N)ncnc54)[C@H](OP(=O)(O)O)[C@@H]3O)[C@@H](O)[C@H]2O)C=CC1 [NADPH, nicotinamide adenine dinucleotide phosphate (reduced)]
Activity toward substrates of other known oxidases [1]: failed to stimulate

Compound: NC(=O)c1ccc[n+]([C@@H]2O[C@H](COP(=O)([O-])OP(=O)(O)OC[C@H]3O[C@@H](n4cnc5c(N)ncnc54)[C@H](OP(=O)(O)O)[C@@H]3O)[C@@H](O)[C@H]2O)c1 [NADP]
Electron acceptor, increase in absorbance at 340 nm [3]: did not act as electron acceptors

Compound: NC(=O)c1ccc[n+]([C@@H]2O[C@H](COP(=O)([O-])OP(=O)(O)OC[C@H]3O[C@@H](n4cnc5c(N)ncnc54)[C@H](O)[C@@H]3O)[C@@H](O)[C@H]2O)c1 [NAD]
Electron acceptor, increase in absorbance at 340 nm [3]: did not act as electron acceptors

Activity toward substrates of other known oxidases [1]: failed to stimulate
Compound: NCc1ccccc1 [benzylamine]

Compound: Oc1ccccc1O [catechol]
Activity toward substrates of other known oxidases [1]: failed to stimulate

Compound: c1cnc2c(c1)ccc1cccnc12 [o-phenanthroline]
Change in sulfhydryl oxidase activity [2]: No activity decreases

Activity toward substrates of other known oxidases [1]: failed to stimulate
Compound: NCCCCN [putrescine]

Compound: O=S([O-])[O-].[Na+].[Na+] [sodium sulfite]
Kd ([4]; from spectrum 1 of FIG. 3, pH 6, 50 mM sodium phosphate): 3.04 mM
Kd ([4]; from spectrum 2 of FIG. 3, pH 6, 50 mM sodium phosphate): 2.95 mM
Reaction with sulfite (changes in visible spectrum) [5]: failed to react

Compound: O=c1[nH]c(=O)c2[nH]cnc2[nH]1 [xanthine]
Activity toward substrates of other known oxidases [1]: failed to stimulate
